Data on twelve compounds can be found in patent US7863315B2, “2-indolinone derivatives as selective histone deacetylase inhibitors” (Shenzhen Chipscreen Biosciences, Ltd., priority 2008, dated 2011).

For experiment [1], the system named is total HDAC enzyme (HeLa extract). Kind of experiment: In vitro inhibition of total HDAC enzyme activity (HDAC Fluorimetric Assay/Drug Discovery Kit, BIOMOL). The class given is biochemical, human. As for the experimental part: Measurement of in vitro inhibition of total HDAC enzyme activity:
The in vitro inhibition of total HDAC enzyme was determined by HDAC Fluorimetric Assay/Drug Discovery Kit (BIOMOL) according to manufacture's instruction. • 1. Add Assay buffer, diluted trichostatin A or test inhibitor to appropriate wells of the microtiter plate. Following table lists examples of various assay types and the additions required for each test.
• 2. Add diluted HeLa extract or other HDAC sample to all wells except those that are to be “No Enzyme Controls” (Blank). • 3. Allow diluted Fluor de LyS™ Substrate and the samples in the microtiter plate to equilibrate to assay temperature (25° C.). • 4. Initiate HDAC reactions by adding diluted substrate (25 μl) to each well and mixing thoroughly. • 5. Allow HDAC reactions to proceed for desired length of time and then stop them by addition of Fluor de Lys™ Developer (50 μl). Incubate plate at room temperature (25° C.) for 10-15 min. • 6. Read samples in a microtiter-plate reading fluorimeter capable of excitation at a wavelength in the range 350-380 nm and detection of emitted light in the range 440-460 nm.

In experiment [2] the test system is HDAC class I (p21 reporter gene). Kind of experiment: HDAC subtype reporter gene assay, p21-promoter luciferase in HeLa cells. The note with it: Homo sapiens, M-HeLa, read-out: % of SAHA Response for HDAC class I at 10 μM (p21 reporter gene), 24 hours. It is filed as cell-based. The protocol: (§1) Measurement of inhibition of HDAC subtypes activity in cells by reporter gene assay: HDAC subtype selectivity inhibition assay of tested compounds was carried out by several reporter gene assays experiments. Briefly, HeLa cells were seeded in 96-well plates the day before transfection to give a confluence of 50-80%. Cells were transfected with one of reporter gene plasmids containing a promoter sequences or response elements upstream of a luciferase gene construct using FuGene6 transfection reagent according to the manufacturer's instructions (Roche). The promoters or response elements including p21-promoter, gdf11-promoter, MEF-binding element (MEF2), Nur77-promoter were fused upstream to the luciferase gene reporter construct. For normalizing the transfection efficiency, a GFP expression plasmid was cotransfected. Cells were allowed to express protein for 24 hours followed by addition of individual compounds or the vehicle (DMSO). 24 hours later, the cells were harvested and the luciferase assays were performed using the luciferase assay kit according to the manufacturer's instructions (Promega). To normalize the data from the luciferase assays, GFP activity from transfected cells was measured in a microtiter-plate reading fluorimeter capable of excitation at a wavelength at 485 nm and detection of emitted light at 527 nm.

Experiment [3] deals with HDAC4/5 (MEF2 reporter gene). Kind of experiment: HDAC subtype reporter gene assay, MEF-binding element (MEF2) luciferase in HeLa cells. The following applies: Homo sapiens, M-HeLa, read-out: % of SAHA Response for HDAC4/5 at 10 μM (MEF2 reporter gene), 24 hours. The class given is cell-based. The protocol:
as §1

Experiment [4] concerns HDAC7 (Nur77 reporter gene). As to the kind of experiment: HDAC subtype reporter gene assay, Nur77-promoter luciferase in HeLa cells. It is filed as cell-based. The following applies: Homo sapiens, M-HeLa, read-out: % of SAHA Response for HDAC7 at 10 μM (Nur77 reporter gene), 24 hours. As for the experimental part: as §1
A further experiment deals with lysine acetylation. Kind of experiment: ELISA assay of acetylation of lysine in HeLa cells. It is filed as cell-based. The following applies: Homo sapiens, M-HeLa, 24 hours. The source says: Measurement of acetylation activity in cells on substrates:
ELISA Assay of Acetylation of Lysine
This assay is used to measure in vivo inhibition of HDAC6 in a cytoblot assay.
Materials and Reagent: • 1. 24-well tissue culture • 2. DMEM Medium containing 10% FBS • 3. 96-well white plate • 4. HeLa cell line • 5. M-PER Mammalian Protein Extraction Reagent (Pierce) • 6. Bradford assay reagent • 7. Acetylated-lysine polyclonal Antibody (Cell Signaling) • 8. HRP-labeled anti-rabbit IgG (Upstate) • 9. Coating Buffer: 15 mM Na2CO3, 35 mM NaHCO3 (pH 9.6) • 10. 10×PBS: 0.58M Na2HPO4, 0.17M NaH2PO4, 0.68M NaCl (pH 7.4) • 11. Wash Buffer:1×PBS containing 0.05% Tween-20 (PBST) • 12. Blocking Buffer:10 mg/ml bocine serum albumin (BSA) in PBS • 13. Antibody Dilution Buffer: 5 mg/ml BSA in PBST • 14. Enhanced chemiluminescence (ECL) (Amersham)
Procedure for performing the assay in 96-well plate: • 1. HeLa cells were seeded at a density of 60000 cells/500 μl/well in 24-well plate and incubated at 37° C. for 24 hours. • 2. Compounds were added and incubated for 24 hours at 37° C. • 3. Culture medium was removed, then washes the cells twice with ice-cold PBS. • 4. Add 100 μl/well of Protein Extraction Reagent and gently shake the mixture for 5 minutes. • 5. Collect the lysate to a 96-well plate respectively. Determine the concentration of protein by Bradford assay. • 6. Coat the wells of a 96-well white plate with 100 μl/well of 2.5 μg whole cell protein in Coating Buffer by incubating overnight at 4° C. • 7. Discard the uncoated proteins and wash the coated wells three times with 200 μl/well of PBST. • 8. Block coated wells by incubating the plate with 200 μl/well of Blocking Buffer for 1 hour at 37° C. • 9. Wells were aspirated and washed three times with 200 μl/well of PBST. • 10. After aspirating, 50 μl/well of Antibody Dilution Buffer containing acetylated-lysine polyclonal antibody (1:1000) were added to each well and incubated for 2 hour at 37° C. • 11. Wells were aspirated and washed three times with 200 μl/well of PBST. • 12. 50 μl/well of Antibody Dilution Buffer containing HRP-labeled anti-rabbit IgG (1:2000) were added to each well and incubated for 2 hour at 37° C. • 13. Wells were aspirated and washed three times with 200 μl/well of PBST. • 14. Wells were washed three times with 200 μl/well of purified water. • 15. Add 50 μl/well of ECL mixture, then read the plates on the plate reader.

On to `Cc1[nH]c(/C=N/N=C2\C(=O)Nc3ccc(F)cc32)c(C)c1C(=O)NCCCCC(=O)Nc1ccccc1N` [Example 7, 5-(5-(((5-fluoro-2-oxoindolin-3-ylidene)hydrazono)methyl)-2,4-dimethyl-1H-pyrrole-3-carboxamido)-N-(2-aminophenyl)pentanamide], for which the “% of Inhibition on Total HDAC Enzyme at 30 μM” value (from here on “% of Inhibition”) in experiment [1] is 2%. In addition, the figures for the Emax at 10 µM in experiment [2], in experiment [3] and in experiment [4] were 11%, 23% and 3%, respectively. Also, in the experiment with lysine acetylation, the fold induction at 10 µM came to 1.58.
As for `Cc1[nH]c(/C=N/N=C2\C(=O)Nc3ccc(F)cc32)c(C)c1C(=O)NCCCCC(=O)Nc1ccc(F)cc1N` [Example 8, 5-(5-(((5-fluoro-2-oxoindolin-3-ylidene)hydrazono)methyl)-2,4-dimethyl-1H-pyrrole-3-carboxamido)-N-(2-amino-4-fluorophenyl)pentanamide], in experiment [1], the “% of Inhibition” value is −26%. Besides, the results for the Emax at 10 µM in experiment [2], in experiment [3] and in experiment [4] were 7%, 23% and 4%, respectively. Moreover, the fold induction at 10 µM with lysine acetylation was 2.01.
`Cc1[nH]c(/C=N/N=C2\C(=O)Nc3ccc(F)cc32)c(C)c1C(=O)NCCCCCC(=O)NO` [Example 11, 6-(5-(((5-fluoro-2-oxoindolin-3-ylidene)hydrazono)methyl)-2,4-dimethyl-1H-pyrrole-3-carboxamido)-N-hydroxyhexanamide]: the “% of Inhibition” value in experiment [1] is 86%. Besides, the Emax at 10 µM in experiment [2] amounted to 52%; in experiment [3] it was 27%; in experiment [4], 9%. In the experiment on lysine acetylation, this compound returned a fold induction at 10 µM of 1.87.
For `Cc1[nH]c(/C=N/N=C2\C(=O)Nc3ccc(F)cc32)c(C)c1C(=O)NCCCCCC(=O)Nc1ccc(F)cc1N` [Example 12, 6-(5-(((5-fluoro-2-oxoindolin-3-ylidene)hydrazono)methyl)-2,4-dimethyl-1H-pyrrole-3-carboxamido)-N-(2-amino-4-fluorophenyl)hexanamide], the “% of Inhibition” value in experiment [1] is recorded as 14%. For the same compound, the Emax at 10 µM worked out at 9% in experiment [2], 35% in experiment [3] and 6% in experiment [4]. For the same compound, the fold induction at 10 µM in the experiment with lysine acetylation is 1.84.
For `Cc1[nH]c(/C=N/N=C2\C(=O)Nc3ccc(F)cc32)c(C)c1C(=O)NCCCCCC(=O)Nc1ccccc1N` [Example 13, 6-(5-(((5-fluoro-2-oxoindolin-3-ylidene)hydrazono)methyl)-2,4-dimethyl-1H-pyrrole-3-carboxamido)-N-(2-aminophenyl)hexanamide] the same measures were 30%, 18%, 18%, 5% and 3.08.
Turning to `O=C(CCCCCNC(=O)c1ccc(/C=N/N=C2\C(=O)Nc3ccc(F)cc32)cc1)NO` [Example 31, 6-(4-(((5-fluoro-2-oxoindolin-3-ylidene)hydrazono)methyl)benzamido)-N-hydroxyhexanamide], in experiment [1], the “% of Inhibition” value worked out at 89%. Besides, the values for the Emax at 10 µM in experiment [2], in experiment [3] and in experiment [4] were 39%, 30% and 8%, respectively. The same compound had a fold induction at 10 µM in the experiment with lysine acetylation of 1.67.
On to `Nc1ccccc1NC(=O)CCCCCNC(=O)c1ccc(/C=N/N=C2\C(=O)Nc3ccc(F)cc32)cc1` [Example 32, 6-(4-(((5-fluoro-2-oxoindolin-3-ylidene)hydrazono)methyl)benzamido)-N-(2-aminophenyl)hexanamide], for which, in experiment [1], the “% of Inhibition” value was 20%. Also, the Emax at 10 µM in experiment [2] came to 17%; in experiment [3] it was 28%; in experiment [4] it was 5%. In the experiment on lysine acetylation, this compound returned a fold induction at 10 µM of 1.32.
Consider `Nc1ccccc1NC(=O)CCCCCCCNC(=O)c1ccc(/C=N/N=C2\C(=O)Nc3ccc(F)cc32)cc1` [Example 35, 8-(4-(((5-fluoro-2-oxoindolin-3-ylidene)hydrazono)methyl)benzamido)-N-(2-aminophenyl)octanamide], for which the “% of Inhibition” value in experiment [1] is listed as 22%. Besides, the Emax at 10 µM in experiment [2] was found to be 56%; in experiment [3], 46%; in experiment [4], 13%. Further, in the experiment with lysine acetylation, the fold induction at 10 µM was found to be 1.04.
In the case of `O=C(CCCCCNC(=O)c1ccc(/C=C2\C(=O)Nc3ccc(F)cc32)cc1)NO` [Example 41, 6-(4-((5-fluoro-2-oxoindolin-3-ylidene)methyl)benzamido)-N-hydroxyhexanamide], the “% of Inhibition” value in experiment [1] worked out at 96%. The Emax at 10 µM came out at 13% in experiment [2], 21% in experiment [3] and 4% in experiment [4]. The fold induction at 10 µM with lysine acetylation came out at 1.6.
With `Nc1cc(F)ccc1NC(=O)CCCCCNC(=O)c1cccc(/C=C2\C(=O)Nc3ccc(F)cc32)c1` [Example 45, 6-(3-((5-fluoro-2-oxoindolin-3-ylidene)methyl)benzamido)-N-(2-amino-4-fluorophenyl)hexanamide], the “% of Inhibition” value in experiment [1] turned out to be 30%. Further, the Emax at 10 µM in experiment [2] turned out to be 19%; in experiment [3], 44%; in experiment [4] it was 16%. In the experiment with lysine acetylation, this compound showed a fold induction at 10 µM of 1.17.
Consider `O=C(CCCCCNC(=O)c1cccc(/C=C2\C(=O)Nc3ccc(F)cc32)c1)NO` [Example 46, 6-(3-((5-fluoro-2-oxoindolin-3-ylidene)methyl)benzamido)-N-hydroxyhexanamide], for which the “% of Inhibition” value in experiment [1] came to 95%. Moreover, the Emax at 10 µM was determined as 15% in experiment [2], 27% in experiment [3] and 4% in experiment [4]. For the same compound, the fold induction at 10 µM in the experiment on lysine acetylation was 1.16.
For the compound `Nc1ccccc1NC(=O)CCCCNC(=O)c1cccc(/C=C2\C(=O)Nc3ccc(F)cc32)c1` [Example 49, 5-(3-((5-fluoro-2-oxoindolin-3-ylidene)methyl)benzamido)-N-(2-aminophenyl)pentanamide], in experiment [1], the “% of Inhibition” value was 22%. Moreover, the Emax at 10 µM amounted to 18% in experiment [2], 32% in experiment [3] and 8% in experiment [4]. This compound also returned a fold induction at 10 µM with lysine acetylation of 1.02.
